Measurements reported in patent US6284914A, “Highly water-soluble metalloproteinase inhibitors” (Fuji Yakuhin Kogyo Kabushiki Kaisha, priority 1995, dated 2001).
Counter-ions that a name gives are not always drawn. Like-named read-outs stand apart in the source and are kept apart here.

Legend:
[1] = biological target: T1, collagenase (MMP-1) (Homo sapiens, UniProt P03956); experiment: Assay for Collagenase Inhibitory Activity (MMP-1); format: biochemical
T1 construct: endogenous in cells; host or cells: human fibroblast
T1 sequence (P03956 100-469): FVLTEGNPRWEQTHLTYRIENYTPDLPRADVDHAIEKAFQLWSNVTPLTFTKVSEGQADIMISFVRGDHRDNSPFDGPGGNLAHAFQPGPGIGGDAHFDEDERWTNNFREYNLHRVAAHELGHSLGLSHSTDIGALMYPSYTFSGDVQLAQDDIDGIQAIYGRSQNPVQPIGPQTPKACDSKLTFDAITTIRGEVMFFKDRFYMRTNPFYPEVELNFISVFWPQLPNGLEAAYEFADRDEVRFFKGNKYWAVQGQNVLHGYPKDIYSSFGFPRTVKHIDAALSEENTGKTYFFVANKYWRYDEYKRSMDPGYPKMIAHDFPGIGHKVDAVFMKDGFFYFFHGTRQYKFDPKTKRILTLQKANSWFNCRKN
Description: (§1) Inhibitory activities of the compounds represented by the general formula (I) according to the invention for collagenase (metalloproteinase concerned with a tissue destruction) derived from human fibroblast were tested by the method of Y. Murawaki et al., [Journal of Hepatology, 18, p. 328-334 (1993)], and their inhibitory activities for stromelysin derived from human fibroblast were measured by the method of S. S. Twining et al., [Anal. Biochem., 143, p. 30 (1984)].
Inhibitory activities for collagenase (MMP-1) of the compounds of Examples and comparative compounds were measured by the method of Y. Murawaki et al., [Journal of Hepatology, 18, p. 328-334 (1993)]. The latent procollagenase was activated by incubating with mercury aminophenylacetate (2 mM) at 35° C. for 2 hours. The assay was done by using bovine type I collagen labeled with fluorescein as a substrate. The activated collagenase was added to the substrate solution (0.5 mg/ml) in Tris HCl buffer (50 mM, pH 7.5) containing sodium chloride (0.4 M) and calcium chloride (10 mM). The obtained solution was incubated at 35° C. for 2 hours. The enzyme digestion was stopped by the addition of o-phenanthroline (80 mM). The mixture was added with pig spleen elastase solution (25 μg/ml) in the above Tris HCl buffer, and incubated 37° C. for 10 min. The obtained solution was added with 70% ethanol and Tris HCl buffer (170 mM, pH 9.5) containing sodium chloride (0.61 M), whereby the indigested substrate was sedimented by centrifuging at 3000 g for 20 min. The supernatant was taken, and its intensity of fluorescence was determined by the excitation wavelength (495 nm) and the measured wavelength (520 nm), and the inhibitory activity was obtained. IC50 is a concentration of a compound assayed in the digesting enzyme, whereby the splitting of the substrate was decreased to 50% compared with that attained by the enzyme alone.

[2] = biological target: T2, stromelysin (MMP-3) (Homo sapiens, UniProt P08254); experiment: Assay for Stromelysin Inhibitory Activity (MMP-3); format: biochemical; details: fluorescein-labeled casein substrate, 37° C., 2 hours, pH 7.8; read-out: Inhibitory activities for matrix metalloproeinases (MMPs), MMP-3, IC50 value
T2 construct: endogenous in cells; host or cells: human fibroblast
T2 sequence (P08254 100-477): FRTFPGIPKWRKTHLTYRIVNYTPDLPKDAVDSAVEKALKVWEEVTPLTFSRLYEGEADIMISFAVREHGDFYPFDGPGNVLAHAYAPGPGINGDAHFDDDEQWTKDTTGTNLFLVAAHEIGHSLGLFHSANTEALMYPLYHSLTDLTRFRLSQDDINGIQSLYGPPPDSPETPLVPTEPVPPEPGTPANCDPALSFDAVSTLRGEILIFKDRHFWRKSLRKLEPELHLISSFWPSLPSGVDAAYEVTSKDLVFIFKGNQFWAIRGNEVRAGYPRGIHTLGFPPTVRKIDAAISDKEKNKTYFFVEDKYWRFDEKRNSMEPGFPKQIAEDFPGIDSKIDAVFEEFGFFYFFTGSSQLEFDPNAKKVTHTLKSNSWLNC
Description: as §1
Inhibitory activities for stromelysin (MMP-3) of the compounds of Examples and comparative compounds were measured by the method of S. S. Twining et al., [Anal. Biochem., 143, p. 30 (1984)]. The latent prostromelysin was incubated with human plasmin (20 μg/ml) for the activation at 37° C. for 2 hours, and then the incubate was added with diisopropyl fluorophosphate solution (2.8 mg/ml) to stop the reaction. The assay was done by using casein labeled with fluorescein as the substrate. The activated stromelysin was added to a substrate solution (1 mg/ml) in Tris HCl buffer (50 mM, pH 7.8) containing calcium chloride (10 mM). The obtained solution was incubated at37° C. for 2 hours. The enzyme digestion forthesubstrate was stopped by adding 5% trichloroacetic acid. The indigested substrate was sedimented by centrifuging at 3000 g for 20 min. The supernatant was taken and added with Tris HCl buffer (0.5 M, pH 8.5), whereby its intensity of fluorescence was determined by the excitation wavelength (495 nm) and the measured wavelength (520 nm), and the inhibitory activity was obtained. IC50 is a concentration of a compound assayed in the digesting enzyme, whereby the splitting of the substrate was decreased to 50% compared with that attained by the enzyme alone.

[3] = Measurement of Solubility in Water; format: physicochemical; details: distilled water, 20±5° C., 30 min., checked by eye
Description: A compound of Examples or a comparative compound was added to distilled water and shaken vigorously at 20±5° C. for 30 seconds at 5 min. interval. After 30 min., it was checked by watching with eye whether the compound was dissolved or not.

[4] = fluorescein-labeled bovine type I collagen substrate, 35° C., 2 hours, pH 7.5, read-out: Inhibitory activities for matrix metalloproeinases (MMPs), MMP-1, IC50 value

IC50 [1, 4] [nM] | IC50 [2] [nM] | Structure (SMILES) | also measured
20 | 280 | CCCOC[C@H](C(=O)N[C@@H](Cc1ccc(S(=O)(=O)[O-])cc1)C(=O)NC)C(CSC(C)C)C(=O)NO.[Na+] (mixture of isomers) [Example 6, N-[4-(N-Hydroxyamino)-2(R)-n-propyloxymethylene-3(RS)-isopropylthiomethylenesuccinyl]-L-4'-sulfophenylalanine-N-methylamide, Monosodium Salt] | Solubility in water [3]: > 120 mg/mL
– | – | CNC(=O)[C@H](Cc1ccc(OS(=O)(=O)O)cc1)NC(=O)C(CC(=O)NO)CC(C)C (single isomer, unassigned) [Example 1 (Isomer A), N-[4-(N-Hydroxyamino)-2(R or S)-isobutylsuccinyl]-O-sulfo-L-tyrosine-N-methylamide, Monosodium Salt] | solubility at 0.5 h ([3]; water): > 240 mg/mL
5.1 | 500 | CNC(=O)[C@H](Cc1ccc(OS(=O)(=O)O)cc1)NC(=O)C(CC(=O)NO)CC(C)C (single isomer, unassigned) [Example 1 (Isomer B), N-[4-(N-Hydroxyamino)-2(R or S)-isobutylsuccinyl]-O-sulfo-L-tyrosine-N-methylamide, Monosodium Salt] | –
– | – | CNC(=O)[C@H](Cc1ccc(OS(=O)(=O)O)cc1)NC(=O)[C@H](CC(C)C)C(CCCc1ccccc1)C(=O)NO (single isomer, unassigned) [Example 3 (Isomer A), N-[4-(N-Hydroxyamino)-2(R)-isobutyl-3(R or S)-(3-phenyltrimethylene)succinyl]-O-sulfo-L-tyrosine-N-methylamide, Monosodium Salt] | solubility at 0.5 h ([3]; water): > 100 mg/mL
0.4 | 5.4 | CNC(=O)[C@H](Cc1ccc(OS(=O)(=O)O)cc1)NC(=O)[C@H](CC(C)C)C(CCCc1ccccc1)C(=O)NO (single isomer, unassigned) [Example 3 (Isomer B), N-[4-(N-Hydroxyamino)-2(R)-isobutyl-3(R or S)-(3-phenyltrimethylene)succinyl]-O-sulfo-L-tyrosine-N-methylamide, Monosodium Salt] | Solubility in water ([3]; Monosodium Salt): 150 mg/mL
8 | 8 | CNC(=O)[C@H](Cc1ccc(S(=O)(=O)O)cc1)NC(=O)[C@H](CC(C)C)C(CSc1cccs1)C(=O)NO (single isomer, unassigned) [Example 5 (Isomer A), N-[4-(N-Hydroxyamino)-2(R)-isobutyl-3(R or S)-(thienylthiomethylene)succinyl]-L-4'-sulfophenylalanine-N-methylamide, Monosodium Salt] | solubility at 0.5 h ([3]; water): > 320 mg/mL
– | – | CNC(=O)[C@H](Cc1ccc(S(=O)(=O)O)cc1)NC(=O)[C@H](CC(C)C)C(CSc1cccs1)C(=O)NO (single isomer, unassigned) [Example 5 (Isomer B), N-[4-(N-Hydroxyamino)-2(R)-isobutyl-3(R or S)-(thienylthiomethylene)succinyl]-L-4'-sulfophenylalanine-N-methylamide, Monosodium Salt] | Solubility in water ([3]; Monosodium Salt): > 300 mg/mL
7 | 15 | CNC(=O)[C@H](Cc1ccc(CNC(C)=N)cc1)NC(=O)[C@H](CC(C)C)C(CCCc1ccccc1)C(=O)NO (single isomer, unassigned) [Example 10, N-[4-(N-Hydroxyamino)-2(R)-isobutyl-3(R or S)-(3-phenyltrimethylene)succinyl]-L-4'-acetimidoyliminomethylenephenylalanine-N-methylamide Monoacetate] | –
5 | 5 | CNC(=O)[C@H](Cc1ccc(C(=N)N)cc1)NC(=O)[C@H](CC(C)C)C(CCCc1ccccc1)C(=O)NO (single isomer, unassigned) [Example 17, N-[4-(N-Hydroxyamino)-2(R)-isobutyl-3(R or S)-(3-phenyltrimethylene)succinyl]-L-4'-amidinophenylalanine-N-methylamideMonoacetate] | –
– | 110 | CNC(=O)[C@H](Cc1ccc(OC)cc1)NC(=O)[C@@H](CC(=O)NO)CC(C)C [Comparative Compound 1, N-[4-(N-Hydroxyamino)-2(R)-isobutylsuccinyl]-O-methyl-L-tyrosine-N-methylamide, reference compound] | solubility at 0.5 h ([3]; water): < 1 mg/mL
– | – | CNC(=O)[C@H](Cc1ccccc1)NC(=O)[C@H](CC(C)C)[C@H](CSc1cccs1)C(=O)NO [Comparative Compound 3, N-[4-(N-Hydroxyamino)-2(R)-isobutyl-3(S)-thienyltiomethylenesuccinyl]-L-phenylalanine-N-methylamide, reference compound] | solubility at 0.5 h ([3]; water): < 1 mg/mL
10 | 10 | CNC(=O)[C@H](Cc1ccc(CNC(=N)c2ccccc2)cc1)NC(=O)[C@H](CC(C)C)C(CCCc1ccccc1)C(=O)NO (stereo partly drawn) [Example 12, N-[4-(N-Hydroxyamino)-2(R)-isobutyl-3(RS)-(3-phenyltrimethylene)succinyl]-L-4'-benzimidoyliminomethylenephenylalanine-N-methylamide Monoacetate] | –
4 | 10 | CNC(=O)[C@H](Cc1ccc(CNC(C)=O)cc1)NC(=O)[C@H](CC(C)C)C(CCCc1ccccc1)C(=O)NO (stereo partly drawn) [Example 13, N-[4-(N-Hydroxyamino)-2(R)-isobutyl-3(RS)-(3-phenyltrimethylene)succinyl]-L-4'-acetamidomethylenephenylalanine-N-methylamide] | –
4 | 10 | CNC(=O)[C@H](Cc1ccc(CNC(=N)N)cc1)NC(=O)[C@H](CC(C)C)C(CCCc1ccccc1)C(=O)NO (stereo partly drawn) [Example 14, N-[4-(N-Hydroxyamino)-2(R)-isobutyl-3(RS)-(3-phenyltrimethylene)succinyl]-L-4'-guanidomethylenephenylalanine-N-methylamide Monoacetate] | –
500 | 6 | CC(C)C[C@@H](C(=O)N[C@@H](Cc1ccc(OS(=O)(=O)O)cc1)C(=O)Nc1cccc2ccccc12)C(CCCc1ccccc1)C(=O)NO (stereo partly drawn) [Example 18, N-[4-(N-Hydroxyamino)-2(R)-isobutyl-3(RS)-(3-phenyltrimethylene)succinyl]-O-sulfo-L-tyrosine-N-1-naphthylamide, Monosodium Salt] | –
8 | 10 | CC(C)C[C@@H](C(=O)N[C@@H](Cc1ccc(NC(=N)N)cc1)C(=O)Nc1ccccc1)C(CCCc1ccccc1)C(=O)NO (stereo partly drawn) [Example 19, N-[4-(N-Hydroxyamino)-2(R)-isobutyl-3(RS)-(3-phenyltrimethylene)succinyl]-L-4'-guanidophenylalanine-N-phenylamide Monoacetate] | –

Structure (SMILES) | IC50 [1, 4] [nM] | IC50 [2] [nM] | also measured
CNC(=O)[C@H](Cc1ccc(OP(=O)(O)O)cc1)NC(=O)C(CC(=O)NO)CC(C)C (single isomer, unassigned) [Example 9, N-[4-(N-Hydroxyamino)-2(R or S)-isobutylsuccinyl]-O-phospho-L-tyrosine-N-methylamide, Disodium Salt] | – | 400 | IC50 [1]: 17 nM; solubility at 0.5 h [3]: > 200 mg/mL
